# Patent US20040192606A1, “Method of promoting angiogenesis” (priority 1995, published 2004)
# Where two headings read alike, the source gives them in different places.
# Tests used:
# THP-1 cells [1] = assay: VEGF protein secretion by THP-1 cells (ELISA of conditioned media); format: cell-based, human; settings: for inhibition of relaxin-induced VEGF stimulation: PKA inhibitors used at or above their Ki doses, ELISA, data not shown; for VEGF induction: 17 nM (equivalent molar concentration to relaxin)
# THP-1 cells [2] = assay: cAMP levels in THP-1 cells; format: cell-based, human
# [3] = tested on: VEGF transcripts in THP-1 cells; assay: PCR and Southern blot analysis of steady state VEGF mRNA in THP-1 cells; format: cell-based, human
# THP-1 cells [4] = assay: Other effects on THP-1 cells (morphology, thymidine uptake, metalloproteinase expression, nitric oxide production); format: cell-based, human
# rabbit corneal stroma = assay: Rabbit corneal assay (neo-capillary growth toward implanted hydron disc); format: in vivo
# Experimental: (§1) In vivo activity for angiogenesis is determined by the rabbit corneal injection protocol and by the matrigel subcutaneous insert vascularization protocol.
# Test and control material is mixed with hydron into a 0.1 cc disc (resembling a small contact lens). The disc is implanted into a rabbit corneal stroma micro pocket using appropriate anesthesia for the procedure. After one week, neo-capillary growth toward the disc is measured and scored (0-4) utilizing a standard anatomic grading scale. A score of 0 means no growth. A score of 1 means capillaries (one or two) just entering the corneal stroma from the limbus toward the pocket. A score of 3 means vessels have grown to the base of the implant. A score of 4 means vessels have grown around the implant.
# [5] = tested on: mouse dorsum (matrigel plug); assay: Murine matrigel subcutaneous insert vascularization assay; format: in vivo
# Experimental: as §1
# Matrigel (Collaborative Biomedical, Bedford, Mass.) is a reconstituted basement membrane complex containing primarily laminin and type IV collagen. It is isolated from the Engelbreth-Holm-Swarm (EHS) murine tumor. At room temperature, matrigel is liquid; but when injected subcutaneously into a mouse it reconstitutes as a gel.
# Test substance is mixed with matrigel (1%v/v media in 1 cc matrigel) at room temperature and then injected subcutaneously into a mouse dorsum (5 month old female Swiss-Webster). After one week, the mouse is sacrificed and the gel plug(s) harvested. Samples are fixed in buffered formalin, paraffin embedded, sectioned (4 μ) and H&E stained. The samples are scored 1 (positive), 0.5 (indeterminate) or 0 (negative).
# [6] = Serum concentration of relaxin in ongoing clinical trials; format: in vivo, human
# Experimental: While human dosage levels for treating depression have yet to be optimized for relaxin, generally, a daily dose is from about […] of body weight per day, preferably about […] μg/kg, and most preferably about 12.0 to 100.0 μg/kg. Generally it is sought to obtain a serum concentration of relaxin approximating or greater than normal circulating levels in pregnancy, i.e., 1.0 ng/ml, such as 0.5 to 50 ng/ml, preferably 1.0 to 20 ng/ml. […] Thus, for administration to a 70 kg person, the dosage range would be about 7.0 μg to 3.5 mg per day, preferably about […] to 2.1 mg per day, and most preferably about […] per day. The amount of relaxin administered will, of course, be dependent on the subject and the severity of the affliction, the manner and schedule of administration and the judgment of the prescribing physician.
molecule,measurement,setting,value
C[C@]12CC[C@@H]3c4ccc(O)cc4CC[C@H]3[C@@H]1CC[C@@H]2O [17-β-estradiol],effect on relaxin VEGF stimulation compared to relaxin alone,"THP-1 cells [1]; 1 μM, simultaneously with relaxin or 48 hours pretreatment",Neither treatment protocol resulted in a difference in VEGF stimulation
O=S(=O)(NCCNC/C=C/c1ccc(Br)cc1)c1cccc2cnccc12 [H-89],inhibition of relaxin-induced VEGF stimulation,THP-1 cells [1],failed to completely inhibit VEGF stimulation
"CC(C)Cn1c(=O)n(C)c(=O)c2[nH]cnc21 [IBMX, isobutylmethylxanthing]",Net VEGF Expr,"THP-1 cells [1]; Exp 1, 50 × 10^−6M, 24 h, net of placebo-treated control, mean ± SEM",154 ± 46 pg/mL
same,Net VEGF Expr,"THP-1 cells [1]; Exp 2, 50 × 10^−6M, 8 h, net of placebo, mean ± SEM",209 ± 20 pg/mL
CCCCCCOC(=O)[C@]1(O)C[C@@H]2O[C@@]1(C)n1c3ccccc3c3c4c(c5c6ccccc6n2c5c31)C(=O)NC4 [KT5720],inhibition of relaxin-induced VEGF stimulation,THP-1 cells [1],failed to completely inhibit VEGF stimulation
"CCCCCCCCCCCCCC(=O)O[C@@H]1[C@@H](C)[C@@]2(O)[C@@H](C=C(CO)C[C@]3(O)C(=O)C(C)=C[C@@H]23)[C@@H]2C(C)(C)[C@]12OC(C)=O [PMA, reference compound]",cAMP levels,"THP-1 cells [2]; 1 ng/ml, data not shown",does not increase cAMP levels
same,Net VEGF Expr,"THP-1 cells [1]; Exp 5, 1 ng/ml, 8 h, net of placebo, mean ± SEM",342 ± 18 pg/mL
Nc1ncnc2c1ncn2C1CCCO1 (stereo not shown) [SQ22536],inhibition of relaxin-induced VEGF stimulation,THP-1 cells [1],failed to completely inhibit VEGF stimulation
"C[C@@H]1C[C@@H]([C@H](O)CC2CC(=O)NC(=O)C2)C(=O)[C@@H](C)C1 [cycloheximide, reference compound]",effect on relaxin-induced increase of VEGF transcripts,[3]; added with recombinant human relaxin (H2),did not interfere with or amplify this increase
"CCCC(=O)Nc1ncnc2c1ncn2[C@@H]1O[C@@H]2COP(=O)(O)O[C@H]2[C@H]1OC(=O)CCC [dbcAMP, Dibutyryl cAMP]",Net VEGF Expr,"THP-1 cells [1]; Exp 3, 10^−4M, 8 h, net of placebo, mean ± SEM",488 ± 27 pg/mL
same,Net VEGF Expr,"THP-1 cells [1]; Exp 3, 10^−5M, 8 h, net of placebo, mean ± SEM",142 ± 26 pg/mL
same,Net VEGF Expr,"THP-1 cells [1]; Exp 3, 10^−6M, 8 h, net of placebo",-0- pg/ml
"CCCC(=O)Nc1nc2c(ncn2[C@@H]2O[C@@H]3COP(=O)(O)O[C@H]3[C@H]2OC(=O)CCC)c(=O)[nH]1 [dbcGMP, dibutyryl cGMP]",Net VEGF Expr,"THP-1 cells [1]; Exp 3, 10^−6M-10^−4M (each dose), 8 h, net of placebo",-0- pg/ml
Cholera toxin,Net VEGF Expr,THP-1 cells [1],1278 ± 106 pg/mL
IGF-I: member of the relaxin family (Promega),VEGF induction,THP-1 cells [1],Neither IGF-I and IGF-II induced VEGF production
IGF-II: member of the relaxin family (Promega),VEGF induction,THP-1 cells [1],Neither IGF-I and IGF-II induced VEGF production
Pertussis toxin,Net VEGF Expr,"THP-1 cells [1]; Exp 4, 1 μg/ml, 8 h, net of placebo, mean ± SEM",-0- pg/ml
"insulin: member of the relaxin family, compared at 17 nM",VEGF expression relative to that induced by relaxin,THP-1 cells [1]; 17 nM,roughly 30%
relaxin,"morphological changes (adherence to plastic, clumping)",THP-1 cells [4],no observable morphological changes
same,mean score of neo-capillary growth toward the disc (0-4 anatomic grading scale),"rabbit corneal stroma; disc in rabbit corneal stroma micro pocket, after one week, n=8, standard error 0.5, placebo 0.6, P 0.08",1.5
same,angiogenic activity (conclusion),rabbit corneal stroma; rabbit corneal assay,angiogenic
same,angiogenic activity (conclusion),[5]; murine matrigel assay,angiogenic
same,"mean score of gel plugs (1 positive, 0.5 indeterminate, 0 negative)","[5]; subcutaneous matrigel in mouse, after one week, standard error 0.1, control 0.3, P 0.02",0.8
same,serum concentration,"[6]; dosage about 6.0 μg/kg, ±0.3",about 1.8 ng/ml
same,serum concentration,"[6]; dosage about 12.0 μg/kg, ±0.6",~3.6 ng/mL
same,serum concentration,"[6]; dosage about 50 μg/kg, ±1.6",~11.8 ng/mL
same,time at which increase of VEGF transcripts is detectable,[3]; 10 ng/ml,30 min
same,"increase of VEGF121, 165 and 189 PCR bands","[3]; 10 ng/ml, by 2 hours",roughly 2 fold
same,intensity of VEGF transcript bands on Southern blot,[3]; 100 ng/ml,intensity of all bands is increased
same,cAMP levels,"THP-1 cells [2]; relaxin treatment, dose not given",causes an increase in cAMP
same,time course of VEGF in conditioned media,THP-1 cells [1]; 1 ng/ml and 100 ng/ml,increased in the conditioned media in roughly linear fashion up to at least 72 hours
same,VEGF protein secretion (dose dependence),"THP-1 cells [1]; 0.04-50 ng/ml, 8 hours",dose dependent manner
same,Net VEGF Expr,"THP-1 cells [1]; Exp 2, 10 ng/ml, 8 h, net of placebo, mean ± SEM",161 ± 19 pg/mL
same,relaxin concentration at which VEGF protein secretion peaks,"THP-1 cells [1]; doses 0.04-50 ng/ml, 8 hours",1 ng/mL
